The record followed here is publication PMC4186475 (Influenza and Other Respiratory Viruses, 2013).

Test [1] has as its system neuraminidase (NA) of influenza B viruses. The format is biochemical, influenza B virus.
The subject of test [2] is neuraminidase (NA) of variant influenza A (H3N2)v viruses. The format is biochemical, influenza A (H3N2)v virus.
For test [3], the system named is neuraminidase (NA) of influenza A (H1N1)pdm09 viruses. The format is biochemical, influenza A (H1N1)pdm09 virus.

Regarding `CCOC(=O)C1=C[C@@H](OC(CC)CC)[C@H](NC(C)=O)[C@@H](N)C1` [Oseltamivir, Oseltamivir (carboxylate)], the “Fold change in IC50 of test viruses, Approach #2” value (“Fold change in IC50 … Approach #2” below) in test [1] was 5–8 (2) fold. In addition, the “fold change in IC50 of outliers” value in test [2] was 5·30 (35) fold. Moreover, in test [3], the “Fold change in IC50 of test viruses, Approach #1” value is 319–1474 (8) fold; the “Fold change in IC50 … Approach #2” value is 182–1403 (8) fold; the “Fold change in IC50 of test viruses, Approach #3” value is listed as 213–1637 (8) fold; the “fold change in IC50 of outliers” value is listed as 38-27-294·72 (213–1637) fold.
With `CC(=O)N[C@H]1[C@H]([C@H](O)[C@H](O)CO)OC(C(=O)O)=C[C@@H]1N=C(N)N` [Zanamivir, zanamivir], the “Fold change in IC50 … Approach #2” value in test [1] is reported as 7 (1) fold. In addition, the “fold change in IC50 of outliers” value in test [2] is 35·74 (70) fold.
